Assays:
[1] = molecular target: Homeodomain-interacting protein kinase 4 (Homo sapiens) (UniProt Q8NE63); conditions: Compound concentration 1000.0 nM
[2] = test system: Tyrosine-protein kinase ABL1 (Homo sapiens), P00519 [Q252H]; conditions: Compound concentration 1000.0 nM
[3] = molecular target: Casein kinase I isoform gamma-3 (Homo sapiens) (UniProt Q9Y6M4); conditions: Compound concentration 1000.0 nM
[4] = molecular target: Serine/threonine-protein kinase 26 (Homo sapiens) (UniProt Q9P289); conditions: Compound concentration 1000.0 nM
[5] = molecular target: G protein-coupled receptor kinase 3 (Homo sapiens) (UniProt P35626); conditions: Compound concentration 1000.0 nM
[6] = molecular target: Insulin receptor-related protein (Homo sapiens) (UniProt P14616); conditions: Compound concentration 1000.0 nM
[7] = molecular target: Ephrin type-B receptor 2 (Homo sapiens) (UniProt P29323); conditions: Compound concentration 1000.0 nM
[8] = molecular target: Histamine H3 receptor (Homo sapiens) (UniProt Q9Y5N1); conditions: Compound concentration 10.0 uM
[9] = molecular target: D(4) dopamine receptor (Homo sapiens) (UniProt P21917); conditions: Compound concentration 10.0 uM
[10] = molecular target: Cyclin-dependent kinase-like 2 (Homo sapiens) (UniProt Q92772); conditions: Compound concentration 1000.0 nM
[11] = molecular target: Platelet-derived growth factor receptor alpha (Homo sapiens) (UniProt P16234); conditions: Compound concentration 1000.0 nM
[12] = molecular target: Mitogen-activated protein kinase kinase kinase 13 (Homo sapiens) (UniProt O43283); conditions: Compound concentration 1000.0 nM
[13] = molecular target: SRSF protein kinase 3 (Homo sapiens) (UniProt Q9UPE1); conditions: Compound concentration 1000.0 nM
[14] = molecular target: Ribosomal protein S6 kinase alpha-5 (Homo sapiens) (UniProt O75582); conditions: Compound concentration 1000.0 nM
[15] = molecular target: Serine/threonine-protein kinase pim-3 (Homo sapiens) (UniProt Q86V86); conditions: Compound concentration 1000.0 nM
[16] = molecular target: Citron Rho-interacting kinase (Homo sapiens) (UniProt O14578); conditions: Compound concentration 1000.0 nM
[17] = molecular target: Cyclin-dependent kinase 8 (Homo sapiens, UniProt P49336); conditions: Compound concentration 1000.0 nM
[18] = molecular target: Leucine-rich repeat serine/threonine-protein kinase 2 (Homo sapiens) (UniProt Q5S007); conditions: Compound concentration 1000.0 nM
[19] = molecular target: Delta-type opioid receptor (Homo sapiens) (UniProt P41143); conditions: Compound concentration 10.0 uM
[20] = molecular target: Muscarinic acetylcholine receptor M2 (Homo sapiens) (UniProt P08172); conditions: Compound concentration 10.0 uM
[21] = molecular target: Proto-oncogene tyrosine-protein kinase receptor Ret (Homo sapiens) (UniProt P07949); conditions: Compound concentration 1000.0 nM
[22] = molecular target: 5-hydroxytryptamine receptor 3A (Homo sapiens) (UniProt P46098); conditions: Compound concentration 10.0 uM
5-hydroxytryptamine receptor 3A (Homo sapiens), sequence (P46098 whole entry): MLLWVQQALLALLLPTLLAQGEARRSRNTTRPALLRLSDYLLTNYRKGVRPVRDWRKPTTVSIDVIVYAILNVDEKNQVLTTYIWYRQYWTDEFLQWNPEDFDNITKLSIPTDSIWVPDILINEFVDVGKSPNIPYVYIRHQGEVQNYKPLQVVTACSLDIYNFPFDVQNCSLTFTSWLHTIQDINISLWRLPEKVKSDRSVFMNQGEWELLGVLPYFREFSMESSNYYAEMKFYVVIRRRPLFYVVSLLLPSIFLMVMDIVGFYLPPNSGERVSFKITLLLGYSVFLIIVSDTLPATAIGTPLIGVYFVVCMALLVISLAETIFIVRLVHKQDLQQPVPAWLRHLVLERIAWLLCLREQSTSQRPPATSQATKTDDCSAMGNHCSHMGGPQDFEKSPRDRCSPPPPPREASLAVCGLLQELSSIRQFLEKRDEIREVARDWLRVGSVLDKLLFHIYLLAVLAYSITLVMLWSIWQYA

[23] = molecular target: Calcium-dependent protein kinase 1 (Plasmodium falciparum) (UniProt P62344); conditions: Compound concentration 1000.0 nM
[24] = molecular target: Ribosomal protein S6 kinase alpha-6 (Homo sapiens) (UniProt Q9UK32); conditions: Compound concentration 1000.0 nM
[25] = molecular target: 1-phosphatidylinositol 3-phosphate 5-kinase (Homo sapiens) (UniProt Q9Y2I7); conditions: Compound concentration 1000.0 nM
[26] = molecular target: Interferon-induced, double-stranded RNA-activated protein kinase (Homo sapiens) (UniProt P19525); conditions: Compound concentration 1000.0 nM
[27] = test system: Hepatocyte growth factor receptor (Homo sapiens), P08581 [Y1235D]; conditions: Compound concentration 1000.0 nM
[28] = molecular target: Dual specificity mitogen-activated protein kinase kinase 7 (Homo sapiens) (UniProt O14733); conditions: Compound concentration 1000.0 nM
[29] = molecular target: Serine/threonine-protein kinase Nek2 (Homo sapiens) (UniProt P51955); conditions: Compound concentration 1000.0 nM
[30] = molecular target: Ephrin type-B receptor 4 (Homo sapiens) (UniProt P54760); conditions: Compound concentration 1000.0 nM
[31] = molecular target: Histamine H4 receptor (Homo sapiens) (UniProt Q9H3N8); conditions: Compound concentration 10.0 uM
Histamine H4 receptor (Homo sapiens), sequence (Q9H3N8 whole entry): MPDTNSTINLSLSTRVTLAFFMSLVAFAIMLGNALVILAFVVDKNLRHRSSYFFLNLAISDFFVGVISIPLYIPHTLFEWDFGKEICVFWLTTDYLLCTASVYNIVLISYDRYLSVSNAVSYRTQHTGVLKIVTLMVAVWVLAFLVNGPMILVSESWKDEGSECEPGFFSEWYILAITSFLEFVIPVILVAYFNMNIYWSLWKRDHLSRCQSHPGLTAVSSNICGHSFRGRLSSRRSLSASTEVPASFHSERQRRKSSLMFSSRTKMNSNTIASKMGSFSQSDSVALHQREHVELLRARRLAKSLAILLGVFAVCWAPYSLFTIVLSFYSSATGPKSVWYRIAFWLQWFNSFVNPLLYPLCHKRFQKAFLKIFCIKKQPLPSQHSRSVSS

[32] = molecular target: Serine/threonine-protein kinase PAK 5 (Homo sapiens) (UniProt Q9P286); conditions: Compound concentration 1000.0 nM
[33] = molecular target: Membrane-associated tyrosine- and threonine-specific cdc2-inhibitory kinase (Homo sapiens) (UniProt Q99640); conditions: Compound concentration 1000.0 nM
Membrane-associated tyrosine- and threonine-specific cdc2-inhibitory kinase (Homo sapiens), sequence (Q99640 whole entry): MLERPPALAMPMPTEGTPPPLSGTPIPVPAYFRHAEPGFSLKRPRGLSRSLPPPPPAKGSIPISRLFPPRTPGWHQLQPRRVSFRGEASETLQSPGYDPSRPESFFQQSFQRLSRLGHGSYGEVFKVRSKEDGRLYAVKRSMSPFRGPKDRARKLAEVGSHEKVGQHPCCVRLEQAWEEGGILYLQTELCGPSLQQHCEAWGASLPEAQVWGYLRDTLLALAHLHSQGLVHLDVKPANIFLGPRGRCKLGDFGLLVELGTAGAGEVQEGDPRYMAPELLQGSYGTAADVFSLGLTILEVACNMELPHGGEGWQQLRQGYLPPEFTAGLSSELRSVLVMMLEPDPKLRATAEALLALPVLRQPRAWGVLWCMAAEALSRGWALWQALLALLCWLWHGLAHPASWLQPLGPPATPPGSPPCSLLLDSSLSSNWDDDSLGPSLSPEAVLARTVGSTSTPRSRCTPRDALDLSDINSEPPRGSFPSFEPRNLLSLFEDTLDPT

[34] = molecular target: Sodium-dependent noradrenaline transporter (Homo sapiens) (UniProt P23975); conditions: Compound concentration 10.0 uM
[35] = molecular target: Serine/threonine-protein kinase Nek4 (Homo sapiens) (UniProt P51957); conditions: Compound concentration 1000.0 nM
[36] = molecular target: Receptor tyrosine-protein kinase erbB-4 (Homo sapiens) (UniProt Q15303); conditions: Compound concentration 1000.0 nM
[37] = molecular target: Fibroblast growth factor receptor 3 (Homo sapiens) (UniProt P22607); conditions: Compound concentration 1000.0 nM
Fibroblast growth factor receptor 3 (Homo sapiens), sequence (P22607 23-806 limits assumed): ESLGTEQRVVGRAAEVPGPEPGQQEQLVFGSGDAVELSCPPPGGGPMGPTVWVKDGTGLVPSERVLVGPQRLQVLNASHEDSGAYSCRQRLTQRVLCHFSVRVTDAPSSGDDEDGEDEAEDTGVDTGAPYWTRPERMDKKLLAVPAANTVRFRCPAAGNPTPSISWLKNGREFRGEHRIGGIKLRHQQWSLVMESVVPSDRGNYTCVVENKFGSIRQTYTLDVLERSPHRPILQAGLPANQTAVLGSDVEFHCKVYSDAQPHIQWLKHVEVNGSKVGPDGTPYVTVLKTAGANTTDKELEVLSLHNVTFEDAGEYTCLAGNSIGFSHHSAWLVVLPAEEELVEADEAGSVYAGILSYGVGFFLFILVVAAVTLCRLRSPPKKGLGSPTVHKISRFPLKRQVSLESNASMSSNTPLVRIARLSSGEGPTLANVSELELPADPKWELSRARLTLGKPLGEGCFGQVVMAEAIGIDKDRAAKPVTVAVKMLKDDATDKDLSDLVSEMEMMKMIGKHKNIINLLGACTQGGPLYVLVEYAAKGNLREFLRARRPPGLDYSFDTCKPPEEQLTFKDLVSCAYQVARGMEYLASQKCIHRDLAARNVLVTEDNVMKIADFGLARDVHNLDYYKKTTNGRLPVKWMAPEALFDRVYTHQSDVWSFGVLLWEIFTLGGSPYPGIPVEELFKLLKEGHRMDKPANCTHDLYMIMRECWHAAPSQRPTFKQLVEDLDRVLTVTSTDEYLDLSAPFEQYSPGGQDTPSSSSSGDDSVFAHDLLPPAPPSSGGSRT

[38] = molecular target: Myosin-IIIa (Homo sapiens) (UniProt Q8NEV4); conditions: Compound concentration 1000.0 nM
Myosin-IIIa (Homo sapiens), sequence (Q8NEV4 whole entry): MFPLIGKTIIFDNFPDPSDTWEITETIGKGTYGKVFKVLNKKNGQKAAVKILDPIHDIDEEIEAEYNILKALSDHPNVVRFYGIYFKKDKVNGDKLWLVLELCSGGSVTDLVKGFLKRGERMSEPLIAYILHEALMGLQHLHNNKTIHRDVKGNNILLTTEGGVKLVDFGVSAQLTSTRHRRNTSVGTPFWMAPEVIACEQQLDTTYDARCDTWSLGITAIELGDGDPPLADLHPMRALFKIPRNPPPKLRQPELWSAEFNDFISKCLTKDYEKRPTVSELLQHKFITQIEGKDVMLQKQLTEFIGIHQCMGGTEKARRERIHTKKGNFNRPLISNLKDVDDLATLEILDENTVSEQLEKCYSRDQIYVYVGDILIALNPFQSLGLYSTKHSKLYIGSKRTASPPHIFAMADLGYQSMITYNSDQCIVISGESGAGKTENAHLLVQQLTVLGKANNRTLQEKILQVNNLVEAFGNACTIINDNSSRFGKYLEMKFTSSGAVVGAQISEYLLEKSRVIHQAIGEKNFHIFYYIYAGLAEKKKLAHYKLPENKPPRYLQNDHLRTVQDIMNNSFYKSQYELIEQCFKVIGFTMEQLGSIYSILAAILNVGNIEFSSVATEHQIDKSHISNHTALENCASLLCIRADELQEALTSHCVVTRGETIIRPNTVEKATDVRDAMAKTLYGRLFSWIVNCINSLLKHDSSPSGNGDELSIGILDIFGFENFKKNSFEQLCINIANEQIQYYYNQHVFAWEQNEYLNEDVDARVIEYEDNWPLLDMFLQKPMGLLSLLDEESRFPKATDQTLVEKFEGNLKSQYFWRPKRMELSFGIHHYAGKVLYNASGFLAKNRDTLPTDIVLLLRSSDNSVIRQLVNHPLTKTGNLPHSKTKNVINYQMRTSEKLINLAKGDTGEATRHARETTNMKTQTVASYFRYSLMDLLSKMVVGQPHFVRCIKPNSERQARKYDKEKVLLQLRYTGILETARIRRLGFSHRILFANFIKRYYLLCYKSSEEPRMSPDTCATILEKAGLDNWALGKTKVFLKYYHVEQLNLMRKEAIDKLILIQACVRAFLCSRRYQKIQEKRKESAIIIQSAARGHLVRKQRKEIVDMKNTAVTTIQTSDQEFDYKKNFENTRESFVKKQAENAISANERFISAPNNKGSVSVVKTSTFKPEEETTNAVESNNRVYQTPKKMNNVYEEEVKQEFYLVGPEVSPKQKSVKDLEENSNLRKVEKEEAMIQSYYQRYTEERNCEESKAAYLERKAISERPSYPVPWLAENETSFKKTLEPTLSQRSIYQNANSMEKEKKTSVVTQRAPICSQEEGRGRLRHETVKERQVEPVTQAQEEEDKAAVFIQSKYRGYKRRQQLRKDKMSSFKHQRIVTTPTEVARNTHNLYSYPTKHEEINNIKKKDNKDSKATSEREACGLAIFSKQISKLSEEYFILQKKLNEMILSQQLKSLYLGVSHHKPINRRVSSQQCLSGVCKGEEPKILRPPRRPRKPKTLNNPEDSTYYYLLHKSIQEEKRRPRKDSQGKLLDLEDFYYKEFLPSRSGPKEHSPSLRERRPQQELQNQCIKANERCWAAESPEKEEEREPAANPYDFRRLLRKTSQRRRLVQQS

[39] = molecular target: Serine/threonine-protein kinase Nek1 (Homo sapiens) (UniProt Q96PY6); conditions: Compound concentration 1000.0 nM
[40] = molecular target: Serine/threonine-protein kinase TAO2 (Homo sapiens) (UniProt Q9UL54); conditions: Compound concentration 1000.0 nM
Serine/threonine-protein kinase TAO2 (Homo sapiens), sequence (Q9UL54 whole entry): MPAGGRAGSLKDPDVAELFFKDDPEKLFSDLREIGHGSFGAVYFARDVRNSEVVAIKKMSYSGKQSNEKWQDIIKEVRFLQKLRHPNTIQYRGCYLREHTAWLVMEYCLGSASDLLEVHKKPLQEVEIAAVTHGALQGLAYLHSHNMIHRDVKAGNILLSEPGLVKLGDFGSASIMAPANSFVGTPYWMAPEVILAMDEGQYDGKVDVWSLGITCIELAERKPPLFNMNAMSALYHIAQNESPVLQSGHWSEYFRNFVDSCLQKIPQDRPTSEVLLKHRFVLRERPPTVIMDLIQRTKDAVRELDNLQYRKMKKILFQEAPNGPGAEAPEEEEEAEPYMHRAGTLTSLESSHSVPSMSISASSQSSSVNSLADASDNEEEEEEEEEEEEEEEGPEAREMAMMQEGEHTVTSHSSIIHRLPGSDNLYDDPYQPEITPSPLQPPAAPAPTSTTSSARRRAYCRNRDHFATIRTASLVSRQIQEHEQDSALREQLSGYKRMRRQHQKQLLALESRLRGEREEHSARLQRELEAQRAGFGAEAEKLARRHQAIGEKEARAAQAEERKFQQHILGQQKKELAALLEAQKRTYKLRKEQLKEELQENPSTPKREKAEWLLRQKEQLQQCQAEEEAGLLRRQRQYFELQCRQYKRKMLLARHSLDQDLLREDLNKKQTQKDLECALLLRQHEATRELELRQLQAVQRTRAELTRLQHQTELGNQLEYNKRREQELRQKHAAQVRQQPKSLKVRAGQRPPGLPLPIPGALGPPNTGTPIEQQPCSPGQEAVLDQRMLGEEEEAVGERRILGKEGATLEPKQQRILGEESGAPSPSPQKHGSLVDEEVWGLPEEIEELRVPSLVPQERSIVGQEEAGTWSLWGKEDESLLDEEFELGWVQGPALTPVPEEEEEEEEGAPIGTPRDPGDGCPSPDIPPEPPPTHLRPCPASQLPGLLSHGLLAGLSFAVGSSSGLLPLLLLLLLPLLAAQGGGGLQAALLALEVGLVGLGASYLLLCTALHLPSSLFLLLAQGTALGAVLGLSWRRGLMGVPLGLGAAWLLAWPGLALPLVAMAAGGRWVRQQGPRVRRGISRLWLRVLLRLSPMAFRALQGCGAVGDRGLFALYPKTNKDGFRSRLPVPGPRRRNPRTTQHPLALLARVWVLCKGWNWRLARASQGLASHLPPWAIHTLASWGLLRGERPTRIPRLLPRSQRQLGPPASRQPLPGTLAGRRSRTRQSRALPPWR

[41] = test system: Epidermal growth factor receptor (Homo sapiens), P00533 [G719S]; conditions: Compound concentration 1000.0 nM
[42] = test system: ALK tyrosine kinase receptor (Homo sapiens), Q9UM73 [L1196M]; conditions: Compound concentration 1000.0 nM
[43] = molecular target: Tyrosine-protein kinase JAK2 (Homo sapiens) (UniProt O60674); conditions: Compound concentration 1000.0 nM
[44] = molecular target: Phosphatidylinositol 3-kinase catalytic subunit type 3 (Homo sapiens) (UniProt Q8NEB9); conditions: Compound concentration 1000.0 nM
[45] = molecular target: TRAF2 and NCK-interacting protein kinase (Homo sapiens) (UniProt Q9UKE5); conditions: Compound concentration 1000.0 nM
[46] = molecular target: Non-receptor tyrosine-protein kinase TYK2 (Homo sapiens) (UniProt P29597); conditions: Compound concentration 1000.0 nM

O=c1nc(-c2ccccn2)sc2ccccc12 [BTZO-1]
residual activity [1]: 85%
residual activity [2]: 96%
residual activity [3]: 100%
residual activity [4]: 100%
residual activity [5]: 51%
residual activity [6]: 86%
residual activity [7]: 100%
inhibition [8]: 2%
inhibition [9]: 10.1%
residual activity [10]: 76%
residual activity [11]: 89%
residual activity [12]: 100%
residual activity [13]: 100%
residual activity [14]: 94%
residual activity [15]: 100%
residual activity [16]: 100%
residual activity [17]: 36%
residual activity [18]: 97%
inhibition [19]: 4.81%
inhibition [20]: 5.17%
residual activity [21]: 89%
inhibition [22]: 17.2%
residual activity [23]: 77%
residual activity [24]: 92%
residual activity [25]: 100%
residual activity [26]: 100%
residual activity [27]: 100%
residual activity [28]: 93%
residual activity [29]: 84%
residual activity [30]: 100%
inhibition [31]: -0.975%
residual activity [32]: 87%
residual activity [33]: 100%
inhibition [34]: -0.363%
residual activity [35]: 91%
residual activity [36]: 96%
residual activity [37]: 83%
residual activity [38]: 92%
residual activity [39]: 100%
residual activity [40]: 73%
residual activity [41]: 71%
residual activity [42]: 93%
residual activity [43]: 100%
residual activity [44]: 82%
residual activity [45]: 83%
residual activity [46]: 100%

O=C1NC(c2ccccn2)Sc2ccccc21 (configuration not stated) [BTZO-4]
residual activity [1]: 70%
residual activity [2]: 75%
residual activity [3]: 100%
residual activity [4]: 80%
residual activity [5]: 42%
residual activity [6]: 75%
residual activity [7]: 71%
inhibition [8]: 8.1%
inhibition [9]: 7.31%
residual activity [10]: 76%
residual activity [11]: 76%
residual activity [12]: 100%
residual activity [13]: 100%
residual activity [14]: 95%
residual activity [15]: 100%
residual activity [16]: 96%
residual activity [17]: 78%
residual activity [18]: 93%
inhibition [19]: -0.624%
inhibition [20]: 13.7%
residual activity [21]: 88%
inhibition [22]: -1.17%
residual activity [23]: 57%
residual activity [24]: 81%
residual activity [25]: 100%
residual activity [26]: 91%
residual activity [27]: 96%
residual activity [28]: 87%
residual activity [29]: 100%
residual activity [30]: 100%
inhibition [31]: 1.89%
residual activity [32]: 94%
residual activity [33]: 100%
inhibition [34]: 28.7%
residual activity [35]: 58%
residual activity [36]: 77%
residual activity [37]: 97%
residual activity [38]: 85%
residual activity [39]: 100%
residual activity [40]: 71%
residual activity [41]: 82%
residual activity [42]: 97%
residual activity [43]: 84%
residual activity [44]: 99%
residual activity [45]: 100%
residual activity [46]: 88%

— ChEMBL document CHEMBL4507329, “Data for DCP probe BTZO-1” (2021)
